Source: US8765728B2, “[1,5]-diazocin derivatives” (MelliTech, priority 2009, dated 2014)

Tested on: Min6 cell
Experiment: Insulin secretion response of beta cell line to formula I compounds (insulin ELISA)
Assay type: cell-based
Details: rank according to % increase versus control at most effective dose
Procedure, shortened: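 After compound or vehicle exposure, Min6 cells were held 2 h in glucose-free medium and preincubated 30 min at 37° C in glucose-free KRBH (pH 7.4, 0.1% BSA). They were then incubated 30 min at 37° C in KRBH with varying glucose. Secreted insulin and acid-ethanol-extracted intracellular insulin were measured by ELISA.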

With `O=C1CCN(C(=O)c2ccno2)c2cc3c(cc2CN1CC1CC1)OCO3` [Compound 159, 9-(cyclopropylmethyl)-5-(isoxazol-5-ylcarbonyl)-6,7,9,10-tetrahydro[1,3]dioxolo[4,5-i][1,5]benzodiazocin-8(5H)-one] as the compound, how does the “Insulin secretion (Min6 cell) Range 1 to 5” value (from here on “Insulin secretion”) read?
The value was 1 (1: 90-110% of control).

Which “Insulin secretion” value does the source give for `COc1ccc2c(c1)CN(C1CC1)C(=O)CCN2C(=O)C1CCC1` [Compound 160, 1-(cyclobutanecarbonyl)-5-cyclopropyl-8-methoxy-2,3,5,6-tetrahydrobenzo[b][1,5]diazocin-4(1H)-one] here?
The value was 1 (1: 90-110% of control).

How did the “Insulin secretion” value turn out when `O=C1CCNc2cc3c(cc2CN1C1CCCC1)OCO3` [Compound 161, 9-cyclopentyl-6,7,9,10-tetrahydro[1,3]dioxolo[4,5-i][1,5]benzodiazocin-8(5H)-one] was run?
Its value is 1 (1: 90-110% of control).

For `CC(C)(C)OCC(O)CN1CCC(=O)N(C2CC2)Cc2cc3c(cc21)OCO3` (stereo not shown) [Compound 162, 5-(3-tert-butoxy-2-hydroxypropyl)-9-cyclopropyl-6,7,9,10-tetrahydro[1,3]dioxolo[4,5-i][1,5]benzodiazocin-8(5H)-one], which “Insulin secretion” value is on record?
The value was 1 (1: 90-110% of control).

With `CCN1Cc2ccccc2N(CC(C)O)CCC1=O` (stereo not shown) [Compound 163, 5-ethyl-1-(2-hydroxypropyl)-2,3,5,6-tetrahydrobenzo[b][1,5]diazocin-4(1H)-one] as the compound, how does the “Insulin secretion” value read?
Its value is 1 (1: 90-110% of control).

How did the “Insulin secretion” value turn out when `CCN1Cc2cc(F)ccc2N(CC(O)C(C)(C)C)CCC1=O` (stereo not shown) [Compound 166, 5-ethyl-8-fluoro-1-(2-hydroxy-3,3-dimethylbutyl)-2,3,5,6-tetrahydrobenzo[b][1,5]diazocin-4(1H)-one] was run?
The value was 1 (1: 90-110% of control).

Which “Insulin secretion” value does the source give for `C=CCOc1c(OC)ccc2c1CN(CC)C(=O)CCN2CC(O)COc1ccccc1` (stereo not shown) [Compound 167, 7-(allyloxy)-5-ethyl-1-(2-hydroxy-3-phenoxypropyl)-8-methoxy-2,3,5,6-tetrahydrobenzo[b][1,5]diazocin-4(1H)-one] here?
Its value is 2 (2: 110-120% of control).

How did the “Insulin secretion” value turn out when `O=C1CCN(C[C@@H](O)COCc2ccccc2)c2ccc(F)cc2CN1C1CCCC1` [Compound 168, (R)-1-(3-(benzyloxy)-2-hydroxypropyl)-5-cyclopentyl-8-fluoro-2,3,5,6-tetrahydrobenzo[b][1,5]diazocin-4(1H)-one] was run?
The value was 4 (4: 140-170% of control).

`C=CCOc1c(OC)ccc2c1CN(CC1CC1)C(=O)CCN2C(=O)c1ccno1` [Compound 169, 7-(allyloxy)-5-(cyclopropylmethyl)-1-(isoxazole-5-carbonyl)-8-methoxy-2,3,5,6-tetrahydrobenzo[b][1,5]diazocin-4(1H)-one] was tested. Which “Insulin secretion” value did it give?
The value was 4 (4: 140-170% of control).

With “ethyl 2-(4-oxo-1,2,3,4-tetrahydrobenzo[b][1,5]diazocin-5(6H)-yl)acetate [Compound 155]” as the compound, how does the “Insulin secretion” value read?
The value was 1 (1: 90-110% of control).
